Data as given in article PMC8763936 (Investigational New Drugs, 2021).
Several values for one entry are separate records, joined by “and”; a condition that tells them apart may be missing. Equal values may be shown once. Read-outs that look alike come from different tables or passages of the source.

Tests used:
[1] = Study 1 Cohort 2: single dose entrectinib alone or with rifampin, plasma pharmacokinetics; conditions: for t1/2 / half-life / AUCinf / Cmax: geometric mean (geometric CV); for M5/Entrectinib ratio, AUCinf / M5/Entrectinib ratio, Cmax: arithmetic mean (CV)
Procedure: All doses of study medication were administered at the study center.

[2] = biological target: T1, CYP2C19 (Homo sapiens, UniProt P33261); assay: In vitro CYP inhibition in human liver microsomes; format: in vitro ADME; set-up: purchased Corning-Gentest
T1 sequence (P33261 whole entry): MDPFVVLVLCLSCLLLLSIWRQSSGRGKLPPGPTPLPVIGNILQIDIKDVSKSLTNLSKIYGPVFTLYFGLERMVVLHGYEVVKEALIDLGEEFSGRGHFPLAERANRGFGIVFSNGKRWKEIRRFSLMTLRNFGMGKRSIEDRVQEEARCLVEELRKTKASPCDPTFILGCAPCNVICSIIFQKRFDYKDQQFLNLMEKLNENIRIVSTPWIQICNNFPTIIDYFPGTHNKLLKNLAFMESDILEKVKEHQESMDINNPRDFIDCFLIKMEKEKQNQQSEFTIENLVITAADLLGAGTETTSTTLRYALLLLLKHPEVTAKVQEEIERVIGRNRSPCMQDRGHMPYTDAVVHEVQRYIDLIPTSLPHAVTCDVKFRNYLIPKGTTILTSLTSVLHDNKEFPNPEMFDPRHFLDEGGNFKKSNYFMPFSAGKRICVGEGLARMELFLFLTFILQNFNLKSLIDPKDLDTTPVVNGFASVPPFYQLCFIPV

[3] = biological target: T2, CYP1A2 (Homo sapiens, UniProt P05177); assay: In vitro CYP inhibition in human liver microsomes; format: in vitro ADME; set-up: purchased Corning-Gentest
T2 sequence (P05177 1-516): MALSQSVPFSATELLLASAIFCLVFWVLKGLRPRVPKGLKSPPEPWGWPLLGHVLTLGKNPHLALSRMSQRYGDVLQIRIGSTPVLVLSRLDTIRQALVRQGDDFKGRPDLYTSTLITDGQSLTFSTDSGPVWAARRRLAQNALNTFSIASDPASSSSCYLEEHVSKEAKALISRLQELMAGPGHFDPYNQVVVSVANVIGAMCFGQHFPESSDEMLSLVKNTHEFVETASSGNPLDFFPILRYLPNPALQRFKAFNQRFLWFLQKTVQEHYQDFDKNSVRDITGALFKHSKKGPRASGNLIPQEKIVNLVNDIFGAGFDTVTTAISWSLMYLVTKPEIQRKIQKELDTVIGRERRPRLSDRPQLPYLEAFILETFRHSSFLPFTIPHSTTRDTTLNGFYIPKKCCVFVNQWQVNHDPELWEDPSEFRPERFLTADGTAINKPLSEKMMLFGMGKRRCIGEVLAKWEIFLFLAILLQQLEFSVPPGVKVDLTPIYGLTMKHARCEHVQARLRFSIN

[4] = Metabolic profile of entrectinib in pooled human liver microsomes
[5] = biological target: T3, CYP2C9 (Homo sapiens, UniProt P11712); assay: In vitro CYP inhibition in human liver microsomes; format: in vitro ADME; set-up: purchased Corning-Gentest
T3 sequence (P11712 whole entry): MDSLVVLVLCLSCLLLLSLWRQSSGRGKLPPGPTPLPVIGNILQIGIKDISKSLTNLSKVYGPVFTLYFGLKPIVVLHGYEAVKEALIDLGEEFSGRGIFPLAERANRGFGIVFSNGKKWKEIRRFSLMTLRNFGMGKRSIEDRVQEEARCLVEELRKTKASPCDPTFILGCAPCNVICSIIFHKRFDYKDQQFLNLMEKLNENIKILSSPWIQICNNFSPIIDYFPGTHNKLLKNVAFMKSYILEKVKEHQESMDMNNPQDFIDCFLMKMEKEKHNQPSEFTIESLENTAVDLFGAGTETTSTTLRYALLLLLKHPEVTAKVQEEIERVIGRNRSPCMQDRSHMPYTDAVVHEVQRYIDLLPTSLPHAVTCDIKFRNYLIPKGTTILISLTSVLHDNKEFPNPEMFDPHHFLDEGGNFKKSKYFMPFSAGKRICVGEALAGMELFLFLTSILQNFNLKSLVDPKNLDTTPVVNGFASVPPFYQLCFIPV

[6] = biological target: T4, MDR1 (P-gp) (Homo sapiens, UniProt P08183); assay: In vitro P-gp inhibition; format: in vitro ADME
T4 construct: expressed in transfected cells
T4 sequence (P08183 whole entry): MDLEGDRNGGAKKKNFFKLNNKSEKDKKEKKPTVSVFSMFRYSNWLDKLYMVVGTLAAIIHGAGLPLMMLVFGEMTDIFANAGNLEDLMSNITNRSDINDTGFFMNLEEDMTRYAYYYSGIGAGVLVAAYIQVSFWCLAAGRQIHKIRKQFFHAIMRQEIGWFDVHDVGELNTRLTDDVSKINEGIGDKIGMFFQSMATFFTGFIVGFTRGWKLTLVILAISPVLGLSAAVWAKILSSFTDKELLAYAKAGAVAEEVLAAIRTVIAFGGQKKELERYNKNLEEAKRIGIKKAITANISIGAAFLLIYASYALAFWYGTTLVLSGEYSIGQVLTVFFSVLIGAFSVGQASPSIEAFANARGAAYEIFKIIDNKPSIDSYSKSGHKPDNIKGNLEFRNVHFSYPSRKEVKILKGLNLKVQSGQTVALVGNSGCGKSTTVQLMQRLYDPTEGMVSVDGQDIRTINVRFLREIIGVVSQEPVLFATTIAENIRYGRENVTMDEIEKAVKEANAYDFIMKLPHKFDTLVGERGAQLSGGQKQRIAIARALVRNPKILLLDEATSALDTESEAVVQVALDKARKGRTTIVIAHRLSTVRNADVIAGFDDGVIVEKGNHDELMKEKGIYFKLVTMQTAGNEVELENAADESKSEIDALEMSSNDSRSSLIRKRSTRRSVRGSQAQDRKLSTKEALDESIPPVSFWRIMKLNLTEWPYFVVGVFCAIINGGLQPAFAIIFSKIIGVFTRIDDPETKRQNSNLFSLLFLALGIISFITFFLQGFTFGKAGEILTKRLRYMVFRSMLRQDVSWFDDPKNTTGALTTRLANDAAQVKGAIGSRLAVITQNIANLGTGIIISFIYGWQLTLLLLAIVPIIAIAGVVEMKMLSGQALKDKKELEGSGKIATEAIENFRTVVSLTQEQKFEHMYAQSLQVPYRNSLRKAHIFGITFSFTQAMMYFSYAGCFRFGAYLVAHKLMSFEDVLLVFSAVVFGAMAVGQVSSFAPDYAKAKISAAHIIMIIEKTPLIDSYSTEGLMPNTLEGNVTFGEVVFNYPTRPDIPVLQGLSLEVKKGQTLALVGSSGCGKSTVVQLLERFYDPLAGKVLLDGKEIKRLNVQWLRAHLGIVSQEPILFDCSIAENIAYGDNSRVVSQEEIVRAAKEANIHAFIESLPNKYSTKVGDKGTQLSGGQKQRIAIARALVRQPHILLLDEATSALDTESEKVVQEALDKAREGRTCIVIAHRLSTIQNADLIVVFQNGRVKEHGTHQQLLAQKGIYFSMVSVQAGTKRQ

[7] = biological target: T2, CYP1A2; assay: Metabolism by recombinantly expressed CYP enzymes
[8] = biological target: T1, CYP2C19; assay: Metabolism by recombinantly expressed CYP enzymes; set-up: Entrectinib Metabolism to M5: key to the marks not given beside the values
[9] = biological target: T3, CYP2C9; assay: Metabolism by recombinantly expressed CYP enzymes
[10] = biological target: CYP3A4 (Homo sapiens, UniProt P08684); assay: Metabolism by recombinantly expressed CYP enzymes; set-up: key to the marks not given beside the values
Chain of CYP3A4 (P08684 whole entry): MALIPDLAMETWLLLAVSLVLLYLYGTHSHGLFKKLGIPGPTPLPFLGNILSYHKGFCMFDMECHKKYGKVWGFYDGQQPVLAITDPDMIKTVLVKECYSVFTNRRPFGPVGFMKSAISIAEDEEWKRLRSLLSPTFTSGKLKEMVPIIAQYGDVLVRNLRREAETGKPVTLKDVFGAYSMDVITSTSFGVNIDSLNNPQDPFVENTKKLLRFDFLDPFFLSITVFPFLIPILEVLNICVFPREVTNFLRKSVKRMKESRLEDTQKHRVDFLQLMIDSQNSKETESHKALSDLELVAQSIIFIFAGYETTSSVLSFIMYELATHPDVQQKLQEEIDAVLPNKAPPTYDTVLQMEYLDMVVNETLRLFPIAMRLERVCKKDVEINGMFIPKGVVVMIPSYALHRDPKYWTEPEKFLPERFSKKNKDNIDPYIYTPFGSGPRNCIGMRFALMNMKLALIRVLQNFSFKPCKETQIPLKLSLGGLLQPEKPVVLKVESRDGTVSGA

[11] = biological target: CYP2D6 (Homo sapiens, UniProt P10635); assay: Metabolism by recombinantly expressed CYP enzymes
Chain of CYP2D6 (P10635 whole entry): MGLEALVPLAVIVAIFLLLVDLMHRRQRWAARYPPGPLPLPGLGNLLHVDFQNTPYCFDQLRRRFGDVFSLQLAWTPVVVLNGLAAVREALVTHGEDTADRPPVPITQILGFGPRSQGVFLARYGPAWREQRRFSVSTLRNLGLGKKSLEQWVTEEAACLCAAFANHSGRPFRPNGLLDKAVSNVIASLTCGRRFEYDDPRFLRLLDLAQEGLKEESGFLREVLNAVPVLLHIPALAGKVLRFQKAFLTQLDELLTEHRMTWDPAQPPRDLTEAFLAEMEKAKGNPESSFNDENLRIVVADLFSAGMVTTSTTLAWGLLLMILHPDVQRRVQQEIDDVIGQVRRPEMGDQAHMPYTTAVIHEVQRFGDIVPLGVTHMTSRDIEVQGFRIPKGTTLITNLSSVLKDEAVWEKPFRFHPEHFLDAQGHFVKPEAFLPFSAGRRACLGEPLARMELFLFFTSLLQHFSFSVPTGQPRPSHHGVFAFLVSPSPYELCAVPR

[12] = biological target: T5, CYP2C8 (Homo sapiens, UniProt P10632); assay: In vitro CYP inhibition in human liver microsomes; format: in vitro ADME; set-up: was investigated in human liver microsomes; from tissue; host or cells: pooled human liver microsomes; conditions: for IC50: human liver microsomes
T5 sequence (P10632 1-490): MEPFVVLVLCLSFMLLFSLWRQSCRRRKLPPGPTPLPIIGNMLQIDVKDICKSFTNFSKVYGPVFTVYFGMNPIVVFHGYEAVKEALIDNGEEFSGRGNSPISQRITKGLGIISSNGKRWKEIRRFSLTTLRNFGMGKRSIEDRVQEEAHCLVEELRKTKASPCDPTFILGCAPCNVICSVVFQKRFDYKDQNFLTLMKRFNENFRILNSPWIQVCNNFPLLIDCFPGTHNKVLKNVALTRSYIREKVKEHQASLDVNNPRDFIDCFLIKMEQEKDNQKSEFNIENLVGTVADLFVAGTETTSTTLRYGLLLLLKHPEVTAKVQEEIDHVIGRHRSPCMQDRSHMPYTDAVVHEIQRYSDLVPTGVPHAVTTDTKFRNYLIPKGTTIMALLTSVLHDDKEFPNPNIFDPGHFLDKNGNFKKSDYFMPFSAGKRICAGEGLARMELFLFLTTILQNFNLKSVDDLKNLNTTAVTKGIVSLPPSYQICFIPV

[13] = system: CYP3A4/5; assay: In vitro CYP inhibition (direct and time-dependent) in human liver microsomes; format: in vitro ADME
[14] = biological target: T6, CYP1A1 (Homo sapiens, UniProt P04798); assay: Metabolism by recombinantly expressed CYP enzymes; set-up: Entrectinib Metabolism to M5: key to the marks not given beside the values
T6 sequence (P04798 1-512): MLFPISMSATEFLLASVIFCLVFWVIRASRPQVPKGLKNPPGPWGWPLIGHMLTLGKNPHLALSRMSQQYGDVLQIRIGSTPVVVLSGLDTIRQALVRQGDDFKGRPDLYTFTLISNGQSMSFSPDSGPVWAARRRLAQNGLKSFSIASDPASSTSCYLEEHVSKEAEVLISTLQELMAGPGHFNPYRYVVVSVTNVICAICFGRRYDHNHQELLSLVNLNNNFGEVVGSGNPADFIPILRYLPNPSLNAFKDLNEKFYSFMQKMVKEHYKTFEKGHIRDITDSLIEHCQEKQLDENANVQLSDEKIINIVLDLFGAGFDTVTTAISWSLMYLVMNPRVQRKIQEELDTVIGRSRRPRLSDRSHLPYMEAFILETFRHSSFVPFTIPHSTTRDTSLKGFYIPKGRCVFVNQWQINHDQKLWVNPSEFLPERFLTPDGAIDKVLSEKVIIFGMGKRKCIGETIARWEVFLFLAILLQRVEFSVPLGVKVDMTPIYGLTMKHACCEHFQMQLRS

[15] = Metabolic profile of entrectinib in human hepatocytes
[16] = Entrectinib 600 mg with rifampin 600 mg QD
[17] = Entrectinib 600 mg with rifampin

## CN1CCN(c2ccc(C(=O)Nc3n[nH]c4ccc(Cc5cc(F)cc(F)c5)cc34)c(NC3CCOCC3)c2)CC1 [Entrectinib]
[1]; Entrectinib 600 mg alone
  t1/2: 16.7 (16%) h
[1]; [16]
  t1/2: 9.9 (26%) h
[1]; entrectinib coadministered with rifampin vs alone
  decrease of AUCinf: 77%
[1]; human, in vivo, 600 mg
  Tmax: 2.0 (2.0, 5.0) h
[1]; human, in vivo, 600 mg, Tmax
  Tmax: 3.5 h
[1]; human, in vivo, 600 mg, t1/2, Entrectinib 600 mg alone
  half-life: 17 h
[1]; human, in vivo, 600 mg, t1/2, Entrectinib 600 mg with rifampin 600 mg QD
  half-life: 10 h
[2]
  IC50: > 10 µM
[3]
  IC50: > 10 µM
[4]; 60 min incubation, pooled human liver microsomes with NADPH
  parent remained: 47%
[5]
  IC50: > 10 µM
[6]
  IC50: 1.33 µM and 1.3 µM
[7]
  Entrectinib Metabolism to M5: -
  Entrectinib Metabolism to other Products: -
[8]
  Entrectinib Metabolism to M5: ++
  Entrectinib Metabolism to other Products: -
[9]
  Entrectinib Metabolism to M5: -
  Entrectinib Metabolism to other Products: -
[10]
  Entrectinib Metabolism to M5: +++
  Entrectinib Metabolism to other Products: +++
[11]
  Entrectinib Metabolism to M5: +
  Entrectinib Metabolism to other Products: -
[12]
  IC50: > 10 µM
[13]; human, microsomes
  IC50: 2 µM
[14]
  Entrectinib Metabolism to M5: ++
  Entrectinib Metabolism to other Products: +
[15]; after 120 min of incubation
  drug metabolized: 29%

## O=C(Nc1n[nH]c2ccc(Cc3cc(F)cc(F)c3)cc12)c1ccc(N2CCNCC2)cc1NC1CCOCC1 [M5]
[1]; Entrectinib 600 mg alone, single dose, healthy subjects, fasted
  AUCinf: 11,000 (44%) nM•h
[1]; Entrectinib 600 mg alone
  M5/Entrectinib ratio, AUCinf: 0.337 (56%)
  M5/Entrectinib ratio, Cmax: 0.234 (59%)
  Cmax: 383 nM
  t1/2: 33.8 (12%) h
[1]; Entrectinib 600 mg alone, median (minimum, maximum)
  Tmax: 5.0 (4.0, 5.0) h
[1]; [16]
  AUCinf: 1530 (28%) nM•h
  Cmax: 108 nM
  t1/2: 31.1 (28%) h
[1]; Entrectinib 600 mg with rifampin 600 mg QD, median (minimum, maximum)
  Tmax: 3.0 (2.0, 6.0) h
[1]; [17]
  M5/Entrectinib ratio, AUCinf: 0.187 (28%)
  M5/Entrectinib ratio, Cmax: 0.136 (23%)
[1]; entrectinib 600 mg alone
  M5 exposure as share of entrectinib exposure (mean M5/entrectinib ratio for AUCinf): approximately 34%
[1]; entrectinib 600 mg coadministered with rifampin
  M5 exposure as share of entrectinib exposure (mean M5/entrectinib ratio for AUCinf): 19%
[1]; following entrectinib alone and with rifampin
  mean t1/2: 31 to 34 h
[2]
  IC50: > 10 µM
[3]
  IC50: > 10 µM
[4]; human liver microsomes
  share of [14C]entrectinib-derived radioactivity: 28%
[5]
  IC50: > 10 µM
[6]
  IC50: 10.1 µM and 10 µM
[7]
  M5 Metabolism: -
[8]
  M5 Metabolism: -
[9]
  M5 Metabolism: -
[10]
  M5 Metabolism: +++
[11]
  M5 Metabolism: -
[12]; free Cmax 0.0134 μM vs IC50 about 4.9 μM
  free Cmax lower than the CYP2C8 IC50: > 300 fold
[12]
  IC50: ~4.9 µM and 4.9 µM
[13]; human liver microsomes, read-out: IC50
  IC50: > 10 µM
[14]
  M5 Metabolism: +
[15]
  share of entrectinib metabolism: 41%
  share of total drug-related material: 12%
